The values that follow come from patent US20080090805A1, “CB-1 MODULATING COMPOUNDS AND THEIR USE” (ACADIA PHARMACEUTICALS INC., priority 2005, published 2008).

This experiment has as its target CB1 (mutant) (Homo sapiens, UniProt P21554). Nature of the experiment: R-SAT functional receptor assay, CB1 (mutant, truncated after amino acid 417). It counts as cell-based. The note with it: R-SAT CB1; for IC50: receptor form (mutant or wild-type) not stated; for Emax / % Inhibition: receptor form not stated, relative to SR141716 (100%); for Emax: read-out: % Inhibition.

Setting [1] is: Appendix A, read-out: pIC50 (converted).

Read-outs that look alike come from different tables or passages of the source.

CB1 (mutant), sequence (P21554 1-417, change not shown): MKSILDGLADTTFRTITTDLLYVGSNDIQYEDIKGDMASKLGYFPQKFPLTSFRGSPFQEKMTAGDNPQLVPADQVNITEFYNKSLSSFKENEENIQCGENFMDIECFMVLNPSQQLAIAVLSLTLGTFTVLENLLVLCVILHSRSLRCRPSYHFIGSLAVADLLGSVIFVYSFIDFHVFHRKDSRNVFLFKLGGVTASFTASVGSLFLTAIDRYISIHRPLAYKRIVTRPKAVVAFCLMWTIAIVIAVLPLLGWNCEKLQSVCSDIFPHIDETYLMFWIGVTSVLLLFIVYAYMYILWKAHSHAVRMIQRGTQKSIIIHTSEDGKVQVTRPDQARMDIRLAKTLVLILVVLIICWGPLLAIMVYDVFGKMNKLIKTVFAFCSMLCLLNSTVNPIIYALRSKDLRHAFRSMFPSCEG

Consider `CC(CNC(=O)c1ccc2c(c1)N=C(c1ccccc1F)c1ccccc1S2)c1ccccc1` (stereo not drawn) [drawing 909], for which the IC50 under setting [1] was 15.8 nM. Further, the Emax (Appendix A) was determined as 110%.
Taken in the same sequence, the figures for `O=C(NCCc1cccc(Cl)c1)c1ccc2c(c1)N=C(c1ccc(Cl)cc1)c1ccccc1S2` [drawing 911] were 15.8 nM and 99%.
In the case of `CCN(CCNC(=O)c1ccc2c(c1)N=C(N1CCCCC1)c1ccccc1S2)c1ccccc1` [drawing 913], under setting [1], the IC50 was 15.8 nM. Also, the Emax (Appendix A) was 105%.
For `O=C(NN1CCCCC1)c1ccc2c(c1)N=C(c1ccc(Cl)cc1)c1ccccc1S2` [drawing 914], the “% Inhibition” value (Appendix A) amounted to 51%.
Turning to `CCCNC(=O)c1ccc2c(c1)N=C(c1ccc(OC)cc1)c1ccccc1S2` [drawing 915], the IC50 under setting [1] was 15.8 nM. For the same molecule, the Emax (Appendix A) stood at 112%.
The corresponding values for `O=C(NCc1ccc(F)cc1)c1ccc2c(c1)N=C(C1CCCCC1)c1ccccc1S2(=O)=O` [drawing 917] are 15.8 nM and 120%.
The corresponding values for `O=C(NCCc1cccc(Cl)c1)c1ccc2c(c1)N=C(c1ccc(F)cc1)c1ccccc1S2` [drawing 919] are 15.8 nM and 98%.
In the case of `CC(C)NC(=O)c1ccc2c(c1)N=C(c1cccc(Cl)c1)c1ccccc1S2` [drawing 921], the IC50 under setting [1] was 15.8 nM. Further, the Emax (Appendix A) was 118%.
On to `O=C(NCc1ccc(F)cc1)c1ccc2c(c1)N=C(c1ccccc1F)c1ccccc1S2` [drawing 925], for which the IC50 under setting [1] is 15.8 nM. Moreover, the Emax (Appendix A) came to 102%.
Consider `CCCNC(=O)c1ccc2c(c1)N=C(c1sccc1C)c1ccccc1S2` [drawing 927], for which, under setting [1], the IC50 is 15.8 nM. Besides, for the setting “Appendix A”, the Emax was 99%.
Consider `O=C(NNCc1ccccc1)c1ccc2c(c1)N=C(c1cccc(Br)c1)c1ccccc1S2` [drawing 928], for which, under setting [1], the IC50 is 251 nM. Moreover, the Emax (Appendix A) came out at 86%.
Consider `O=C(NN1CCCCC1)c1ccc2c(c1)N=C(c1cccc(F)c1)c1ccccc1S2` [drawing 929], for which the Emax (Appendix A) turned out to be 111%. The molecule further showed an IC50 (pIC50, Appendix A) of 15.8 nM.
Turning to `O=C(NCc1cccnc1)c1ccc2c(c1)N=C(c1ccc(F)cc1)c1ccccc1S2` [drawing 931], under setting [1], the IC50 was 15.8 nM. In addition, for the setting “Appendix A”, the Emax was 123%.
Take `CC(CNC(=O)c1ccc2c(c1)N=C(c1ccc(Cl)cc1)c1ccccc1S2)c1ccccc1` (stereo not drawn) [drawing 933]: under setting [1], the IC50 was 20 nM. Besides, the Emax (Appendix A) stood at 106%.
Consider `O=C(NCCCc1ccccc1)c1ccc2c(c1)N=C(c1ccccc1F)c1ccccc1S2` [drawing 935], for which, under setting [1], the IC50 is 20 nM. For the same molecule, the Emax (Appendix A) was determined as 106%.
Turning to `CCCCNC(=O)c1ccc2c(c1)N=C(C1CCCCC1)c1ccccc1S2` [drawing 937], the IC50 under setting [1] is 20 nM. Further, the Emax (Appendix A) is 106%.
For `O=C(NCc1cccc(Cl)c1)c1ccc2c(c1)N=C(N1CCCCC1)c1ccccc1S2(=O)=O` [drawing 939], the Emax (Appendix A) stood at 91%. This molecule showed an IC50 (pIC50, Appendix A) of 20 nM.
As for `O=C(NC1CCCCC1)c1ccc2c(c1)N=C(c1cccc(F)c1)c1ccccc1S2` [drawing 941], under setting [1], the IC50 is 20 nM. Further, under “Appendix A”, the Emax turned out to be 127%.
Taken in the same sequence, the figures for `C[C@@H]1CCC[C@H](C)N1NC(=O)c1ccc2c(c1)N=C(c1ccc(F)cc1)c1ccccc1S2` [drawing 943] were 20 nM and 115%.
The corresponding values for `Cc1ccsc1C1=Nc2cc(C(=O)NCCC(C)C)ccc2Sc2ccccc21` [drawing 945] are 20 nM and 106%.
On to `Cc1ccc(CNC(=O)c2ccc3c(c2)N=C(c2cccc(F)c2)c2ccccc2S3)o1` [drawing 947], for which, where the note is “Appendix A”, the Emax was 69%. Under “pIC50, Appendix A”, the IC50 is 20 nM.
In the case of `CC(C)CNC(=O)c1ccc2c(c1)N=C(c1ccc(Cl)cc1)c1ccc(F)cc1S2` [drawing 949], the IC50 under setting [1] is 20 nM. In addition, the Emax (Appendix A) came out at 110%.
In the case of `O=C(NC1CCCCC1)c1ccc2c(c1)N=C(c1ccc(F)cc1)c1ccccc1S2` [drawing 951], the IC50 under setting [1] is 20 nM. Moreover, the “% Inhibition” value (Appendix A) worked out at 108%.
In the case of `Cc1ccc(CNC(=O)c2ccc3c(c2)N=C(c2sccc2C)c2ccccc2S3)o1` [drawing 953], the IC50 under setting [1] is 20 nM. For the same molecule, the Emax (Appendix A) came out at 79%.
For `O=C(NCc1ccccc1Cl)c1ccc2c(c1)N=C(c1cccc(Cl)c1)c1ccccc1S2` [drawing 955], under setting [1], the IC50 was 20 nM. For the same molecule, the Emax (Appendix A) was determined as 102%.
As to `O=C(NN1CCCCC1)c1ccc2c(c1)N=C(c1ccc(Cl)cn1)c1ccccc1S2` [drawing 959], the IC50 under setting [1] is 20 nM. The Emax (Appendix A) is 112%.
The corresponding values for `O=C(NCc1ccc(F)cc1)c1ccc2c(c1)N=C(c1ccc(Cl)cc1)c1ccccc1S2(=O)=O` [drawing 961] are 20 nM and 108%.
With `COCCNC(=O)c1ccc2c(c1)N=C(c1ccc(Cl)s1)c1ccccc1S2` [drawing 963], the IC50 under setting [1] is 20 nM. Besides, the “% Inhibition” value (Appendix A) is 95%.
For `COc1ccc(C2=Nc3cc(C(=O)NCCC(C)C)ccc3Sc3ccccc32)cc1` [drawing 965], the IC50 under setting [1] was 20 nM. Further, the Emax (Appendix A) amounted to 104%.
As for `CC(C)CCNC(=O)c1ccc2c(c1)N=C(c1ccccn1)c1ccccc1S2` [drawing 967], the IC50 under setting [1] was 20 nM.
`CCCNC(=O)c1ccc2c(c1)N=C(c1ccc(Cl)cc1)c1ccccc1S2` [drawing 969]: the IC50 under setting [1] was 20 nM. The “% Inhibition” value (Appendix A) stood at 105%.
`Cc1ccc(N2CCN(C(=O)c3ccc4c(c3)N=C(c3ccc(Cl)cc3)c3ccccc3S4)CC2)c(C)c1` [drawing 970]: under setting [1], the IC50 was 316 nM. For the same molecule, under “Appendix A”, the Emax turned out to be 94%.
As for `O=C(NCCc1cccc(Cl)c1)c1ccc2c(c1)N=C(N1CCCCC1)c1ccccc1S2` [drawing 973], the IC50 under setting [1] was 20 nM. Moreover, the Emax (Appendix A) was 108%.
Consider `CCCC1=Nc2cc(C(=O)NC3CCC(C)CC3)ccc2Sc2ccccc21` (stereo not drawn) [drawing 975], for which, under “Appendix A”, the Emax is 114%. Moreover, the IC50 (pIC50, Appendix A) is 20 nM.
On to `O=C(NCc1ccncc1)c1ccc2c(c1)N=C(c1cccc(Br)c1)c1ccccc1S2` [drawing 977], for which, under setting [1], the IC50 is 20 nM. In addition, under “Appendix A”, the Emax was determined as 95%.
`O=C(NCCc1cccnc1)c1ccc2c(c1)N=C(c1cccc(F)c1)c1ccccc1S2` [drawing 981]: under “Appendix A”, the Emax worked out at 94%. Also, where the note is “pIC50, Appendix A”, the IC50 was 20 nM.
Consider `CC(C)CNC(=O)c1ccc2c(c1)N=C(c1ccc(Cl)s1)c1ccc(Cl)cc1S2` [drawing 983], for which the IC50 under setting [1] was 25.1 nM. For the same molecule, the Emax (Appendix A) was determined as 110%.
For the molecule `CCCCNC(=O)c1ccc2c(c1)N=C(c1ccc(Cl)cc1)c1ccc(F)cc1S2` [drawing 985], under setting [1], the IC50 is 25.1 nM. The Emax (Appendix A) turned out to be 109%.
For `O=C(NN1CCCCC1)c1ccc2c(c1)N=C(C1CCCCC1)c1ccccc1S2` [drawing 987], the “% Inhibition” value (Appendix A) is 101%.
As to `O=C(NN1CCCCC1)c1ccc2c(c1)N=C(c1ccc(Cl)c(Cl)c1)c1ccccc1S2` [drawing 989], the IC50 under setting [1] was 25.1 nM. The Emax (Appendix A) is 105%.
With `O=C(NN1CCCCC1)c1ccc2c(c1)N=C(c1ccc(Cl)c(F)c1)c1ccccc1S2` [drawing 991], the IC50 under setting [1] was 25.1 nM. Moreover, the Emax (Appendix A) turned out to be 110%.
For the molecule `O=C(NN1CCCCC1)c1ccc2c(c1)N=C(c1ccc(Br)cc1)c1ccccc1S2` [drawing 993], the IC50 under setting [1] was 25.1 nM. Besides, for the setting “Appendix A”, the Emax stood at 92%.

As a reminder, the % Inhibition is the change of the read-out against control, counted positive when it falls.
